Test results: patent publication US10975056B2 (GlaxoSmithKline Intellectual Property Development Limited, priority 2016, dated 2021)
Read-outs that look alike come from different tables or passages of the source.

Key:
[1] = test system: erythroid progenitor cells (EPCs); assay: Fetal hemoglobin (HbF) ELISA in day 7 erythroid progenitor cells; type: cell-based, human; settings: for EC50: Homo sapiens, Erythroid progenitor cell, read-out: EPC ELISA (pEC50 category) (converted)
Procedure: Day 7 EPCs were cultured in duplicate plates with serially diluted Compound A for 5 days at 37° C. Wells were then analyzed for either induction of fetal hemoglobin (HbF,HbF ELISA) or cell growth (Cell Titer-Glo). In both cases, signal was normalized to vehicle-control treated cells.
Culture, Expansion, and Characterization of Day 7 Erythroid Progenitor Cells (EPC)s
All donors provided written informed consent for use of their samples, and the collection and use of the samples received institutional review board approval. All cryopreserved human bone marrow CD34+ cells used here were obtained from AlICells (Emeryville, Calif.) and were generally from different donors. The CD34+ cells were cultured to generate EPCs at day 7. Briefly, 1 million cells were cultured in 5% CO2, 5% O2 at 37° C. in H3000 Stemspan media (StemCell Technologies Vancouver, BC, Canada) supplemented with 2 mM L-glutamine, 40 μg/mL human low-density lipoproteins (StemCell Technologies), 10 ng/mL recombinant human (rh) interleukin IL-3 (R&D Systems, Minneapolis, Minn.), 100 ng/mL rh stem cell factor (R&D Systems), and 0.5 U/mL rh erythropoietin (Invitrogen, Grand Island, N.Y.). Cells were split and refed on day 4 with complete culture media described above and harvested on day 7 for evaluation of erythroid marker expression and assessment of γ-globin induction. Day 7 EPCs were then frozen in liquid nitrogen at 5 to 10 million cells/mL in 95% fetal bovine serum (FBS; Invitrogen) with 5% DMSO for subsequent use.
At the time of compound treatment, frozen day 7 EPCs prepared as described above were thawed, washed once and re-suspended in complete culture media as described above with the exception of an increase of rhEPO to 3 U/mL. Cells were counted and diluted to […] for plating into assay plates. Cells were then dispensed, at 30 μL per well with Multidrop™ Combi Reagent Dispenser (Thermo Scientific), into 384-well cell culture plates into which test compounds were pre-dispensed at 100 nL/well. Black Clear Bottom (Greiner Bio-One; 781090) and White (Greiner Bio-One; 781080) plates were used for ELISA and Cell Titer-Glo assays, respectively. The final cell density in the assays is 1,000 cells per well, with final compound concentrations between 33 nM (highest) and […] (lowest) for the 22-points serial dilution.
Fetal Hemoglobin (HbF) ELISA
Coating anti-HbF Ab (Bethyl Lab; cat. A80-136A) was diluted by 100-fold in the coating buffer (0.05 M carbonate-bicarbonate, pH 9.6), and then 20 μL/well was added to a 384-well MaxiSorp ELISA plate (Thermo Fisher; cat. 464718). After 1 hour incubation at room temperature, the plates were washed twice with ELISA washing buffer (50 mM Tris, 0.05% Tween 20, pH 8.0) with an EL406 plate washer (BioTek, Winooski, Vt.). Then, 40 μL/well of blocking buffer consisting of 50 mM Tris and 1% BSA (pH 8.0) was added to the plate and stored at 4° C. with cover sheet overnight, or until time of the assay. The coated ELISA plates were stable for up to 30 days at 4° C. On the day of assay, the plates were washed twice with ELISA washing buffer prior to addition of cell lysate.
After 5 days at 37° C. with 5% CO2 cell culture plates for ELISA assay were put into −80° C. freezer for a minimum of 2 hours. After thawing at room temperature, 30 μL of cell lysis buffer (Invitrogen; cat. FNN0011, supplemented with 1× protease inhibitor) was added to each well and the resulting cell lysate was mixed eight times with a Cybi-Well (Jena, Germany) pipettor. Following the mixing procedure, 20 μL/well of lysate was transferred to the coated ELISA plates described above followed by a 1 hour incubation at room temperature. The ELISA assay plates were washed three times with ELISA wash buffer. 20 μL per well of 1:75,000 to 100,000 diluted horseradish peroxidase (HRP) conjugate detection antiHbF Ab (Bethyl Labs; cat. A80-136P, diluted in 50 mM Tris [pH 8.0], 1% BSA, 0.05% Tween-20) was then added. […]

[2] = target: DNMT1 (Homo sapiens, UniProt P26358); assay: DNMT1 biochemical activity, breaklight assay and/or SPA assay; settings: binned activity in either the breaklight or the SPA assay; for IC50: read-out: DNMT1 BioChemical (pIC50 category) (converted)
Chain of DNMT1 (P26358 whole entry, looked up): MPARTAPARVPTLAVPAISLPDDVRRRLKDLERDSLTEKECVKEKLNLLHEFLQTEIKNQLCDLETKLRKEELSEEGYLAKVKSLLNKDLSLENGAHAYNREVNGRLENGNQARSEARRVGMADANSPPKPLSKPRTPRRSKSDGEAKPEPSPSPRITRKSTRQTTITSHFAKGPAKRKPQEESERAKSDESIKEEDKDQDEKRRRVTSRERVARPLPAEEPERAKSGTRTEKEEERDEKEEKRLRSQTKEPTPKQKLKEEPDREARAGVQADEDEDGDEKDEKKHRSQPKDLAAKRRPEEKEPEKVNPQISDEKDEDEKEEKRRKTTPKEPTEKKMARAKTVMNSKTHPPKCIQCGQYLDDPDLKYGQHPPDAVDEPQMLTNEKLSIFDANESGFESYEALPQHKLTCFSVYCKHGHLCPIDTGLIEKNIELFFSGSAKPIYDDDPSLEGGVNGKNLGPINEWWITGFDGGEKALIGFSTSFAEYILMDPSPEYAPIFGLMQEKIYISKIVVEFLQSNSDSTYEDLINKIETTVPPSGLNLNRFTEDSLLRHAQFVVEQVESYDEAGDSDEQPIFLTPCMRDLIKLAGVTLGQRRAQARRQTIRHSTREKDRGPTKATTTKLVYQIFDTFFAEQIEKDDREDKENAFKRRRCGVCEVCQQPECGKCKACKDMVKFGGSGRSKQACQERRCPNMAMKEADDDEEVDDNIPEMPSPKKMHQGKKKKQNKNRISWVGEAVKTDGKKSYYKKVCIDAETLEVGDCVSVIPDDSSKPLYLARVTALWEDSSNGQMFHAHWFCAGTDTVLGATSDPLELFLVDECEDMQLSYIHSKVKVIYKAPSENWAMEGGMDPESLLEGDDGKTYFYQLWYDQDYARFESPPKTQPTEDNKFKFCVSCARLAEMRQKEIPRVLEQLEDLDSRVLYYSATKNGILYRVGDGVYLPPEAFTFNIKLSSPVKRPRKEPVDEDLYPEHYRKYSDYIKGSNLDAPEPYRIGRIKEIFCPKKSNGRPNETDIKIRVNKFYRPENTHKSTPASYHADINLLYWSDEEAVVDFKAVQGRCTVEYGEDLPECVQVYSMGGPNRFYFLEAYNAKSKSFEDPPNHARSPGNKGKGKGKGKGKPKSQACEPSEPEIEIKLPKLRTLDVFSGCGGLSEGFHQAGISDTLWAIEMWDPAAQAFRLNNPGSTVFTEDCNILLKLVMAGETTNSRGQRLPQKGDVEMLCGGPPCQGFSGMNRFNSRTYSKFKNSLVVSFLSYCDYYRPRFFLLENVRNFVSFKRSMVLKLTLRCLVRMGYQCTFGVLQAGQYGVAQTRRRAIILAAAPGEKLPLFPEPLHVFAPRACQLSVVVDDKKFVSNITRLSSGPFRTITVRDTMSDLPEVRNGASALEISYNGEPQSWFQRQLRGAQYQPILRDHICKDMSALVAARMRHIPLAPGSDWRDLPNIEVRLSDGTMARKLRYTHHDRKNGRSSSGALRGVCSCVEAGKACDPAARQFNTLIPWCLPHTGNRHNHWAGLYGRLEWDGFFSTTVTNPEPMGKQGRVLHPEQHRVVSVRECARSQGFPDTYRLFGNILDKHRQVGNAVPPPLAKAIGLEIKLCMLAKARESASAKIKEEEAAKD
Procedure: DNMT1 breaklight in vitro assays were conducted in a total volume of 50 μl in a standard 384 well format, using black non-binding surface microplates (Corning 3575). […] Negative control wells used 5 μl of DNMT1 and 5 μl of oligonucleotide but 0 μM SAM. All reagents were made up in 1× assay buffer (20 mM Tris pH 6.8, 25 mM NaCl, 0.5 mM MgCl2, 0.01% Triton X100 and 1 mM DTT). The reaction was incubated at 26° C. for 45 min and then stopped with the addition of 40 μl detection reagent. Detection reagent, made up in 1× Gla assay buffer (20 mM Tris pH 8.0, 80 mM NaCl, 0.75 mM MgCl2, 0.01% Triton X100 and 1 mM DTT) has a final concentration of 100 μM SAH (Sigma #A9384) and 0.0008 units/μl Gla1 restriction endonuclease (Sibenzyme #E494). Following addition of the detection reagent the plate was incubated in the dark at room temperature for 5 hr. Fluorescence intensity was then measured on the PHERAstar FS (BMG Labtech) at Ex 485 nm and Em 520 nm, with a gain of 400 and an integration time of 100 ms.
Biochemical activity of DNMT1 analyzed using SPA technology. Plates (Griener 784075) were pre-stamped with 100 nL/well of compound (11-point, 3-fold serial dilution). […] Low control wells contained 5 μL of buffer instead of enzyme. Following a 40 minute incubation, the reaction was quenched upon the addition of 10 μL of stop mixture containing 1 mM SAM (Sigma A7007) and 2 mg/mL PEI beads (Perkin Elmer RPNQ0098). Plates were sealed, centrifuged for 1 min and then read on a Viewlux (Perkin Elmer) using the 613 nm emission filter/300 s read time following a 30 minute dark adapt. Assay conditions prior to quench consisted of 40 nM DNMT1 (601-1600, produced internally), 100 nM 3H-SAM (American Radiolabeled Chemicals ART 0288), 900 nM SAM (New England BioLabs B9003S) and 200 nM hemi methylated DNA oligonucleotide (synthesized at Integrated DNA Technologies, 5′-[…]-3′) in 50 mM HEPES (pH 8.0), 2 mM MgCl2, 1 mM DTT, 0.01% NP-40 and 0.01% BSA.
Comments • 1. […] Where a field is empty, the compound was not tested in that assay.

Row | SMILES | EC50 ([1]; HbF ELISA, day 7 EPCs, 5 days) [nM] | DNMT1 BioChemical (pIC50 category) [2] | IC50 [2] [nM] | EPC ELISA (pEC50 category) ([1]; HbF ELISA, day 7 EPCs, 5 days) | EC50 [1] [nM]
1 | CCc1c(C#N)c(S[C@H](C)c2ccc(N(C)S(C)(=O)=O)cc2)nc(N2CCC(N)CC2)c1C#N (single isomer, unassigned) [Example 681, N-(4-(1-((6-(4-aminopiperidin-1-yl)-3,5-dicyano-4-ethylpyridin-2-yl)thio)ethyl)phenyl)-N-methylmethanesulfonamide] | 1000 to 31600 | D (Category D: ≥6.5) | – | – | –
2 | CCc1c(C#N)c(S[C@H](C(N)=O)c2ccccc2)nc(N2C[C@H](O)CO2)c1C#N (single isomer, unassigned) [Example 694] | 1000 to 31600 | D (Category D: ≥6.5) | – | – | –
3 | CCc1c(C#N)c(SC(C(N)=O)c2ccccc2)nc(N2CCCN(C)CC2)c1C#N (single isomer, unassigned; isomer 1) [Example 254, 2-((3,5-dicyano-4-ethyl-6-(4-methyl-1,4-diazepan-1-yl)pyridin-2-yl)thio)-2-phenylacetamide (Isomer 1)] | 316 to 1000 | – | < 316 | – | –
4 | CCc1c(C#N)c(SC(C(N)=O)c2ccccc2)nc(N2CCCN(C)CC2)c1C#N (single isomer, unassigned; isomer 2) [Example 255, 2-((3,5-dicyano-4-ethyl-6-(4-methyl-1,4-diazepan-1-yl)pyridin-2-yl)thio)-2-phenylacetamide (Isomer 2)] | – | – | 1000 to 31600 | C (Category C: 6.0 ≤ x < 6.5) | –
5 | CCc1c(C#N)c(SC(C(N)=O)c2ccccc2)nc(N2CC(OC(=O)C(N)C(C)C)C2)c1C#N (stereo in doubt) [Example 333, (2R)-1-(6-((2-Amino-2-oxo-1-phenylethyl)thio)-3,5-dicyano-4-ethylpyridin-2-yl)azetidin-3-yl 2-amino-3-methylbutanoate] | 1000 to 31600 | D (Category D: ≥6.5) | – | – | –
6 | CCc1c(C#N)c(S[C@@H](C(N)=O)c2ccccc2)nc(N2CCC(O)(CN)C2)c1C#N.Cl (stereo in doubt) [Example 423, (R)-2-((6-((R)-3-(aminomethyl)-3-hydroxypyrrolidin-1-yl)-3,5-dicyano-4-ethylpyridin-2-yl)thio)-2-phenylacetamide hydrochloride] | – | D (Category D: ≥6.5) | – | C (Category C: 6.0 ≤ x < 6.5) | –
7 | CCc1c(C#N)c(S[C@H](C(N)=O)c2ccccc2)nc(N2CC(N)C2)c1C#N (stereo in doubt) [Example 635, 2-((6-(3-aminoazetidin-1-yl)-3,5-dicyano-4-ethylpyridin-2-yl)thio)-2-phenylacetamide] | 316 to 1000 | D (Category D: ≥6.5) | – | – | –
8 | CCc1c(C#N)c(SC(C(N)=O)c2ccncc2)nc(N2CCN(C)C(=O)C2)c1C#N (stereo not shown) [Example 10, 2-{[3,5-dicyano-4-ethyl-6-(4-methyl-3-oxopiperazin-1-yl)pyridin-2-yl]sulfanyl}-2-(pyridin-4-yl)acetamide] | > 31600 | – | 316 to 1000 | – | –
9 | CCc1c(C#N)c(SC(C(N)=O)c2ccccc2)nc(N2CCN(C3CCNCC3)CC2)c1C#N (stereo not shown) [Example 13, 2-({3,5-dicyano-4-ethyl-6-[4-(piperidin-4-yl)piperazin-1-yl]pyridin-2-yl}sulfanyl)-2-phenylacetamide] | 316 to 1000 | – | 316 to 1000 | – | –
10 | N#Cc1c(SC(C(N)=O)c2ccccc2)nc(N2CCNC(CO)C2)c(C#N)c1C1CC1 (stereo not shown) [Example 14, 2-({3,5-dicyano-4-cyclopropyl-6-[3-(hydroxymethyl)piperazin-1-yl]pyridin-2-yl}sulfanyl)-2-phenylacetamide] | 316 to 1000 | D (Category D: ≥6.5) | – | – | –
11 | N#Cc1c(SC(C(N)=O)c2ccccc2)nc(N2CCC(N3CCOCC3)CC2)c(C#N)c1C1CC1 (stereo not shown) [Example 16] | < 316 | D (Category D: ≥6.5) | – | – | –
12 | CCc1c(C#N)c(SC(C(N)=O)c2ccccc2)nc(N2CCC3(CCNC3)CC2)c1C#N.O=C(O)C(F)(F)F (stereo not shown) [Example 17, 2-((3,5-dicyano-4-ethyl-6-(2,8-diazaspiro[4.5]decan-8-yl)pyridin-2-yl)thio)-2-phenylacetamide; 2,2,2-trifluoroacetic acid] | – | D (Category D: ≥6.5) | – | – | < 316
13 | CC1CN(c2nc(SC(C(N)=O)c3ccccc3)c(C#N)c(C3CC3)c2C#N)CCN1 (stereo not shown) [Example 19, 2-((3,5-Dicyano-4-cyclopropyl-6-(3-methylpiperazin-1-yl)pyridin-2-yl)thio)-2-phenylacetamide] | < 316 | – | 316 to 1000 | – | –
14 | N#Cc1c(SC(C(N)=O)c2ccccc2)nc(N2CCC(O)(CN)CC2)c(C#N)c1C1CC1 (stereo not shown) [Example 23] | 1000 to 31600 | D (Category D: ≥6.5) | – | – | –
15 | CNC1CCCN(c2nc(SC(C(N)=O)c3ccccc3)c(C#N)c(C3CC3)c2C#N)C1 (stereo not shown) [Example 24, 2-((3,5-dicyano-4-cyclopropyl-6-(3-(methylamino)piperidin-1-yl)pyridin-2-yl)thio)-2-phenylacetamide] | < 316 | D (Category D: ≥6.5) | – | – | –
16 | CN(C)c1nc(SC(C(N)=O)c2ccncc2)c(C#N)c(C2CC2)c1C#N (stereo not shown) [Example 26, 2-((3,5-dicyano-4-cyclopropyl-6-(dimethylamino)pyridin-2-yl)thio)-2-(pyridin-4-yl)acetamide] | > 31600 | – | 316 to 1000 | – | –
17 | CCc1c(C#N)c(SC(C(N)=O)c2ccncc2)nc(N(C)C)c1C#N (stereo not shown) [Example 27, 2-((3,5-dicyano-6-(dimethylamino)-4-ethylpyridin-2-yl)thio)-2-(pyridin-4-yl)acetamide] | > 31600 | D (Category D: ≥6.5) | – | – | –
